Laboratory results published in ChEMBL document CHEMBL4840375, “Ring A/B-Modified 17β-Hydroxywithanolide Analogues as Antiproliferative Agents for Prostate Cancer and Potentiators of Immunotherapy for Renal Carcinoma and Melanoma” (J Nat Prod, 2021).

Experiments:
SK-MEL-28 [1] = experiment: Antiproliferative activity against human SK-MEL-28 cells assessed as inhibition of cell proliferation incubated for 72 hrs by MTT assay; type: functional, cell-based; conditions: SK-MEL-28, 72 h
M14 [2] = experiment: Antiproliferative activity against human M14 cells assessed as inhibition of cell proliferation incubated for 72 hrs by MTT assay; type: functional, cell-based; conditions: M14, 72 h
HFF = experiment: Cytotoxicity against human HFF cells assessed as reduction in cell viability incubated for 72 hrs by MTT assay; type: cell-based
SK-MEL-28 [3] = experiment: Potentiation of poly I:C-induced antiproliferative activity against human SK-MEL-28 cells assessed as reduction in cell numbers by measuring IC50 pretreated with compound for 2 hrs followed by poly I:C addition and measured after 48 hrs by MTT assay; type: functional, cell-based; also: test concentration or dose not given here
CWR22R = experiment: Antiproliferative activity against human 22Rv1 cells assessed as inhibition of cell proliferation incubated for 72 hrs by MTT assay; type: functional, cell-based; conditions: 22Rv1, 72 h
M14 [4] = experiment: Potentiation of poly I:C-induced antiproliferative activity against human M14 cells assessed as reduction in cell numbers by measuring IC50 pretreated with compound for 2 hrs followed by poly I:C addition and measured after 48 hrs by MTT assay; type: functional, cell-based; also: test concentration or dose not given here
ACHN [5] = experiment: Antiproliferative activity against human ACHN cells assessed as inhibition of cell proliferation incubated for 72 hrs by MTT assay; type: functional, cell-based
LNCaP = experiment: Antiproliferative activity against human LNCaP cells assessed as inhibition of cell proliferation incubated for 72 hrs by MTT assay; type: functional, cell-based
SK-MEL-28 [6] = experiment: Antiproliferative activity against human SK-MEL-28 cells assessed as inhibition of cell proliferation incubated for 48 hrs by MTT assay; type: functional, cell-based; conditions: SK-MEL-28, 48 h
M14 [7] = experiment: Antiproliferative activity against human M14 cells assessed as inhibition of cell proliferation incubated for 48 hrs by MTT assay; type: functional, cell-based; conditions: M14, 48 h
ACHN [8] = experiment: Antiproliferative activity against human ACHN cells assessed as inhibition of cell proliferation incubated for 24 hrs by MTT assay; type: functional, cell-based
ACHN [9] = experiment: Potentiation of TRAIL-induced antiproliferative activity against human ACHN cells assessed as reduction in cell numbers by measuring IC50 pretreated with compound for 2 hrs followed by TRAIL addition and measured after 24 hrs by MTT assay; type: functional, cell-based; also: test concentration or dose not given here
[10] = Selectivity ratio of IC50 for HFF cells to IC50 for human LNCaP cells; type: toxicity; conditions: HFF cells versus LNCaP cells, read-out: Ratio IC50
[11] = Selectivity ratio of IC50 for HFF cells to IC50 for human 22Rv1 cells

SMILES | IC50 (SK-MEL-28 [1]) [µM] | IC50 (SK-MEL-28 [3]) [µM] | IC50 (ACHN [5]) [µM] | IC50 (LNCaP) [µM] | IC50 (SK-MEL-28 [6]) [µM] | IC50 (ACHN [8]) [µM] | IC50 (ACHN [9]) [µM] | IC50 (M14 [2]) [µM] | IC50 (HFF) [µM] | IC50 (CWR22R) [µM] | IC50 (M14 [4]) [µM] | IC50 (M14 [7]) [µM] | selectivity ratio [10] | Ratio IC50 [11]
CC(=O)OC[C@]12CC[C@H]3[C@@H](C[C@H]4O[C@]45[C@H](O)C=CC(=O)[C@]35C)[C@]1(O)CC[C@@]2(O)[C@@](C)(O)C1CC(C)=C(C)C(=O)O1 (some centres not stated) | 3.03 | 4.72 | 3.93 | 1.74 | > 5 | > 5 | 0.27 | > 5 | > 5 | 0.33 | > 5 | > 5 | – | –
CC(=O)OC[C@]12CC[C@H]3[C@@H](C[C@@H](O)C4=CC=CC(=O)[C@@]43C)[C@]1(O)CC[C@@]2(O)[C@@](C)(O)C1CC(C)=C(C)C(=O)O1 (some centres not stated) | > 5 | – | > 5 | 2.96 | – | – | – | > 5 | > 5 | 1.89 | – | – | – | –
CC(=O)OC[C@]12CC[C@H]3[C@@H](C[C@H]4O[C@]45[C@@H](O)C=CC(=O)[C@]35C)[C@]1(O)CC[C@@]2(O)[C@@](C)(O)C1CC(C)=C(C)C(=O)O1 (some centres not stated) | > 5 | 4.61 | > 5 | 3.52 | > 5 | – | – | > 5 | > 5 | 1.53 | > 5 | > 5 | – | –
CC(=O)OC[C@]12CC[C@H]3[C@@H](C[C@H]4O[C@]45C(=O)C=CC(=O)[C@]35C)[C@]1(O)CC[C@@]2(O)[C@@](C)(O)C1CC(C)=C(C)C(=O)O1 (some centres not stated) | > 5 | – | > 5 | > 5 | – | – | – | > 5 | > 5 | > 5 | – | – | – | –
CC(=O)OC[C@]12CC[C@H]3[C@@H](C[C@H]4O[C@]45[C@@H](OC(C)=O)C=CC(=O)[C@]35C)[C@]1(O)CC[C@@]2(O)[C@@](C)(O)C1CC(C)=C(C)C(=O)O1 (some centres not stated) | 1.55 | 1.38 | 1.27 | 0.92 | 2.73 | > 5 | 0.25 | > 5 | 1.52 | 0.25 | 1.67 | > 5 | – | –
CC(=O)OC[C@]12CC[C@H]3[C@@H](C[C@H](OC(C)=O)[C@]45O[C@H]4C=CC(=O)[C@]35C)[C@]1(O)CC[C@@]2(O)[C@@](C)(O)C1CC(C)=C(C)C(=O)O1 (some centres not stated) | > 5 | – | > 5 | > 5 | – | – | – | > 5 | > 5 | 3.08 | – | – | – | –
CC(=O)OC[C@]12CC[C@H]3[C@@H](CC=C4[C@@H](O)C=CC(=O)[C@@]43C)[C@]1(O)CC[C@@]2(O)[C@@](C)(O)C1CC(C)=C(C)C(=O)O1 (some centres not stated) | – | – | – | 0.35 | – | – | – | 0.45 | > 5 | 0.08 | – | – | – | –
CC(=O)OC[C@]12CC[C@H]3[C@@H](C[C@H]4O[C@]45[C@H](OC(C)=O)C=CC(=O)[C@]35C)[C@]1(O)CC[C@@]2(O)[C@@](C)(O)C1CC(C)=C(C)C(=O)O1 (some centres not stated) | 2.56 | 2.62 | 3.31 | 1.5 | > 5 | > 5 | 0.25 | > 5 | > 5 | 0.21 | > 5 | > 5 | – | –
CC(=O)OC[C@]12CC[C@H]3[C@@H](C[C@@H]4O[C@@]45CC=CC(=O)[C@]35C)[C@]1(O)CC[C@@]2(O)[C@@](C)(O)C1CC(C)=C(C)C(=O)O1 (some centres not stated) | > 5 | 4.56 | > 5 | – | > 5 | – | – | > 5 | > 5 | 0.58 | > 5 | > 5 | – | –
CC(=O)OC[C@]12CC[C@H]3[C@@H](C[C@H]4O[C@]45CC=CC(=O)[C@]35C)[C@]1(O)CC[C@@]2(O)[C@@](C)(O)C1CC(C)=C(C)C(=O)O1 (some centres not stated) | > 5 | 0.11 | – | – | > 5 | > 5 | 0.16 | 1.57 | 2.29 | – | 0.11 | > 5 | 115 | 75
CC(=O)OC[C@]12CC[C@H]3[C@@H](C[C@@H](OC(C)=O)[C@]45O[C@H]4C=CC(=O)[C@]35C)[C@]1(O)CC[C@@]2(O)[C@@](C)(O)C1CC(C)=C(C)C(=O)O1 (some centres not stated) | > 5 | – | > 5 | > 5 | – | – | – | > 5 | > 5 | 1.37 | – | – | – | –
CC(=O)OC[C@]12CC[C@H]3[C@@H](C[C@H](OC(C)=O)C4=CC=CC(=O)[C@@]43C)[C@]1(O)CC[C@@]2(O)[C@@](C)(O)C1CC(C)=C(C)C(=O)O1 (some centres not stated) | > 5 | – | > 5 | 2 | – | – | – | > 5 | > 5 | 1.14 | – | – | – | –
COc1cccc2c1C(=O)c1c(O)c3c(c(O)c1C2=O)C[C@@](O)(C(=O)CO)C[C@@H]3O[C@H]1C[C@H](N)[C@H](O)[C@H](C)O1 [DOXORUBICIN] | – | – | – | – | – | – | – | – | 0.15 | – | – | – | – | –

Now from value to compound, other results behind:

IC50 (SK-MEL-28 [1]) [µM] | IC50 (SK-MEL-28 [3]) [µM] | IC50 (ACHN [5]) [µM] | IC50 (LNCaP) [µM] | IC50 (SK-MEL-28 [6]) [µM] | IC50 (ACHN [8]) [µM] | IC50 (ACHN [9]) [µM] | SMILES | IC50 (M14 [2]) [µM] | IC50 (HFF) [µM] | IC50 (CWR22R) [µM] | IC50 (M14 [4]) [µM] | IC50 (M14 [7]) [µM] | selectivity ratio [10] | Ratio IC50 [11]
> 5 | > 5 | > 5 | > 5 | > 5 | – | – | CC(=O)OC[C@]12CC[C@H]3[C@@H](CC(=O)C4=CC=CC(=O)[C@@]43C)[C@]1(O)CC[C@@]2(O)[C@@](C)(O)C1CC(C)=C(C)C(=O)O1 (some centres not stated) | 2.34 | > 5 | 0.5 | > 5 | > 5 | – | –
> 5 | – | > 5 | > 5 | – | – | – | CC(=O)OC[C@]12CC[C@H]3[C@@H](CC=C4CCCC(=O)[C@@]43C)[C@@]1(O)CC[C@@]2(O)[C@@](C)(O)C1CC(C)=C(C)C(=O)O1 (some centres not stated) | > 5 | > 5 | > 5 | – | – | – | –
– | – | – | 0.68 | – | – | – | CC(=O)OC[C@]12CC[C@H]3[C@@H](CC=C4[C@@H](OC(C)=O)C=CC(=O)[C@@]43C)[C@]1(O)CC[C@@]2(O)[C@@](C)(O)C1CC(C)=C(C)C(=O)O1 (some centres not stated) | 1.43 | 2.69 | 0.13 | – | – | – | –
> 5 | – | > 5 | > 5 | – | – | – | CC(=O)OC[C@]12CC[C@H]3[C@@H](C[C@H](O)C4=CC=CC(=O)[C@@]43C)[C@]1(O)CC[C@@]2(O)[C@@](C)(O)C1CC(C)=C(C)C(=O)O1 (some centres not stated) | > 5 | > 5 | > 5 | – | – | – | –
> 5 | 1.77 | 3.09 | – | > 5 | > 5 | 0.56 | CC(=O)OC[C@]12CC[C@H]3[C@@H](CC=C4CC=CC(=O)[C@@]43C)[C@]1(O)CC[C@@]2(O)[C@@](C)(O)C1CC(C)=C(C)C(=O)O1 (some centres not stated) | > 5 | > 5 | 0.13 | 2.81 | > 5 | – | –
> 5 | 4.49 | > 5 | – | > 5 | – | – | CC(=O)OC[C@]12CC[C@H]3[C@@H](CC=C4C=CCC(=O)[C@@]43C)[C@]1(O)CC[C@@]2(O)[C@@](C)(O)C1CC(C)=C(C)C(=O)O1 (some centres not stated) | > 5 | > 5 | 0.97 | > 5 | > 5 | – | –
> 5 | – | > 5 | > 5 | – | – | – | CC(=O)OC[C@]12CC[C@H]3[C@@H](C[C@@H](O)[C@]45O[C@H]4C=CC(=O)[C@]35C)[C@]1(O)CC[C@@]2(O)[C@@](C)(O)C1CC(C)=C(C)C(=O)O1 (some centres not stated) | > 5 | > 5 | > 5 | – | – | – | –
> 5 | – | > 5 | 1 | – | – | – | CC(=O)OC[C@]12CC[C@H]3[C@@H](C[C@@H](OC(C)=O)C4=CC=CC(=O)[C@@]43C)[C@]1(O)CC[C@@]2(O)[C@@](C)(O)C1CC(C)=C(C)C(=O)O1 (some centres not stated) | > 5 | > 5 | 0.63 | – | – | – | –
> 5 | – | > 5 | > 5 | – | – | – | CC(=O)OC[C@]12CC[C@H]3[C@@H](CC(=O)[C@]45O[C@H]4C=CC(=O)[C@]35C)[C@]1(O)CC[C@@]2(O)[C@@](C)(O)C1CC(C)=C(C)C(=O)O1 (some centres not stated) | > 5 | > 5 | > 5 | – | – | – | –
> 5 | – | > 5 | 0.53 | – | – | – | CC(=O)OC[C@]12CC[C@H]3[C@@H](C[C@H](O)[C@]45O[C@H]4C=CC(=O)[C@]35C)[C@]1(O)CC[C@@]2(O)[C@@](C)(O)C1CC(C)=C(C)C(=O)O1 (some centres not stated) | > 5 | > 5 | 0.25 | – | – | – | –
> 5 | – | > 5 | > 5 | – | – | – | CC(=O)OC[C@]12CC[C@H]3[C@@H](C[C@H]4O[C@]45CCCC(=O)[C@]35C)[C@]1(O)CC[C@@]2(O)[C@@](C)(O)C1CC(C)=C(C)C(=O)O1 (some centres not stated) | > 5 | > 5 | 2.56 | – | – | – | –
